{"source": "patent US8119636B2", "about": "“Pyrrolopyrazine kinase inhibitors” (Roche Palo Alto LLC, priority 2008, dated 2012)", "data": [{"units": {"melting point": "°C"}, "values": [{"smiles": "Cc1ccccc1C(O)c1cnc2[nH]cc(C(=O)C(C)(C)C)c2n1", "note": "(stereo not shown) [Compound I-16, 1-[2-(Hydroxy-o-tolyl-methyl)-5H-pyrrolo[2,3-b]pyrazin-7-yl]-2,2-dimethyl-propan-1-one]", "melting point": "181 to 183"}, {"smiles": "CC(C)C(O)c1cnc2[nH]cc(C(=O)C(C)(C)C)c2n1", "note": "(stereo not shown) [Compound I-15, 1-[2-(1-Hydroxy-2-methyl-propyl)-5H-pyrrolo[2,3-b]pyrazin-7-yl]-2,2-dimethyl-propan-1-one]", "melting point": "148 to 150"}, {"smiles": "CC(C)CC(=O)c1c[nH]c2ncc(Br)nc12", "note": "[Compound I-1, 1-(2-Bromo-5H-pyrrolo[2,3-b]pyrazin-7-yl)-3-methyl-butan-1-one]", "melting point": "183 to 187.5"}, {"smiles": "C#Cc1cnc2[nH]cc(C(=O)C(C)(C)C)c2n1", "note": "[Compound I-11, 1-(2-Ethynyl-5H-pyrrolo[2,3-b]pyrazin-7-yl)-2,2-dimethyl-propan-1-one]", "melting point": "229 to 231"}, {"smiles": "CC(C)(C)C(=O)c1c[nH]c2ncc(Br)nc12", "note": "[Compound I-8, 1-(2-Bromo-5H-pyrrolo[2,3-b]pyrazin-7-yl)-2,2-dimethyl-propan-1-one]", "melting point": "213 to 214"}, {"smiles": "CC(C)(C)C(=O)c1c[nH]c2ncc(C(O)c3ccncc3)nc12", "note": "(stereo not shown) [Compound I-18, 1-[2-(Hydroxy-pyridin-4-yl-methyl)-5H-pyrrolo[2,3-b]pyrazin-7-yl]-2,2-dimethyl-propan-1-one]", "melting point": "189.1 to 194.9"}, {"smiles": "CC1(C(=O)c2c[nH]c3ncc(Br)nc23)CCCCCC1", "note": "[Compound I-24, (2-Bromo-5H-pyrrolo[2,3-b]pyrazin-7-yl)-(1-methyl-cycloheptyl)-methanone]", "melting point": "197.7 to 198.2"}, {"smiles": "CCc1cnc2[nH]cc(C(=O)C(C)(C)C)c2n1", "note": "[Compound I-12, 1-(2-Ethyl-5H-pyrrolo[2,3-b]pyrazin-7-yl)-2,2-dimethyl-propan-1-one]", "melting point": "215 to 216"}, {"smiles": "CC1(C(=O)c2c[nH]c3ncc(Br)nc23)CCCCC1", "note": "[Compound I-7, (2-Bromo-5H-pyrrolo[2,3-b]pyrazin-7-yl)-(1-methyl-cyclohexyl)-methanone]", "melting point": "198 to 199"}, {"smiles": "CC(C)(C)C(=O)c1c[nH]c2ncc(C(O)c3cccnc3)nc12", "note": "(stereo not shown) [Compound I-19, 1-[2-(Hydroxy-pyridin-3-yl-methyl)-5H-pyrrolo[2,3-b]pyrazin-7-yl]-2,2-dimethyl-propan-1-one]", "melting point": "192 to 194"}, {"smiles": "CC(C)(C)C(=O)c1c[nH]c2ncc(C(O)c3ccccc3)nc12", "note": "(stereo not shown) [Compound I-17, 1-[2-(Hydroxy-phenyl-methyl)-5H-pyrrolo[2,3-b]pyrazin-7-yl]-2,2-dimethyl-propan-1-one]", "melting point": "168 to 170"}, {"smiles": "CC(C)(C)C(=O)c1c[nH]c2ncc(Cl)nc12", "note": "[Compound I-6, 1-(2-Chloro-5H-pyrrolo[2,3-b]pyrazin-7-yl)-2,2-dimethyl-propan-1-one]", "melting point": "209 to 210"}, {"smiles": "CC(C)NC(=O)c1c[nH]c2ncc(Cl)nc12", "note": "[Compound I-3, 2-Chloro-5H-pyrrolo[2,3-b]pyrazine-7-carboxylic acid isopropylamide]", "melting point": "278 to 279"}]}]}
